Laboratory results: patent US8158168B2, “Anti-gastritis and anti-ulcer agent containing Momordicae semen extract and momordica saponin I isolated from the same” (SK Chemicals Co., Ltd., priority 2005, dated 2012)

Legend:
Sprague-Dawley rats = assay: Acute toxicity test for oral administration of momordica saponin I in rats (Example 8); format: in vivo; conditions: rat
Description: Acute toxicity test was performed as follows using 6-week-old specific pathogen free (SPF) Sprague-Dawley rats
To two rats per each group, the momordica saponin I isolated in Preparative Example 5 was orally administered once at a dosage of 400 mg/kg. Survival, clinical manifestations and body weight change were observed and hematological and serum biochemical analysis was performed. Autopsy was performed to observe abnormalities in abdominal and thoracic organs.

[1] = tested on: stomach damage induced by diclofenac; assay: Protective effect of momordica saponin I against stomach damage induced by diclofenac (Example 5); format: in vivo, Sprague-Dawley rats; conditions: rat, diclofenac 40 mg/kg oral and at the same time momordica saponin I 20 mg/kg or Mucosta 100 mg/kg oral, observed 4 hours later; for gastric mucosa damage index ± standard deviation: Bleeding / gastric mucosa damage index ± standard deviation: Edema / gastric mucosa damage index ± standard deviation: Flare / gastric mucosa damage index ± standard deviation: Hyperemia: points 0 to 3
Description: Diclofenac and the test drug were administered simultaneously and the damage of gastric mucosa was observed 4 hours later. Diclofenac was dissolved in 0.5% aqueous carboxymethyl cellulose solution to […] and the test drug was prepared as in Example 2.
(§1) Seven-week-old specific pathogen free (SPF) male Sprague-Dawley rats were purchased from Charles River. After 1 week of adaptation, healthy rats with a weight of 220-225 g were selected for the test. Five rats per each group were fasted for 18 hours with drinking water freely available and diclofenac was orally administered at a dosage of 40 mg/kg and, at the same time, the test drug, or momordica saponin I, was orally administered at a dosage of 20 mg/kg and the control drug Mucosta was orally administered at a dosage of 100 mg/kg. 4 hours later, the rats were anesthetized with ether and the stomach was taken out in order to evaluate the drug's effect of treating gastritis. […] The damage of the stomach was classified into flare, congestion, hemorrhage, inflammation and edema. The severity of the damage was evaluated with points ranging from 0 to 3 (The higher the point, the severer the damage).

[2] = tested on: secretion of gastric acid; assay: Gastric acid secretion inhibition test in rats (Example 6); format: in vivo, Sprague-Dawley rats; conditions: 1 hour later, gastric juice diluted 10 times with distilled water
Description: Momordica saponin I was orally administered to Sprague-Dawley rats and the acidity in the stomach was measured in order to evaluate the effect of momordica saponin I on the secretion of gastric acid. The momordica saponin I isolated in Preparative Example 4 was dissolved in 0.5% aqueous carboxymethyl cellulose solution to concentrations of 0.5, 1.5 and 4.5 mg/mL. 7-week-old specific pathogen free (SPF) male Sprague-Dawley rats were purchased from Charles River. After 1 week of adaptation, healthy rats with a weight of 220-225 g were selected for the test. Two rats per each group were fasted for 18 hours with drinking water freely available and momordica saponin I were administered at dosages of 5, 15 and 45 mg/kg. 1 hour later, the rats were anesthetized with ether. 0.5 mL of the gastric juice taken from the stomach was diluted 10 times with distilled water to obtain a 5 mL sample. The pH of the diluted gastric juice was measured with a pH meter.

[3] = tested on: damage of gastric mucosa induced by alcohol; assay: Protective effect against stomach damage induced by alcohol (momordica saponin I, Example 2); format: in vivo, Sprague-Dawley rats; conditions: rat, momordica saponin I 20 mg/kg, Mucosta 100 mg/kg, 30 minutes before 1.5 mL 100% ethanol oral, observed 3 hours later; for gastric mucosa damage index ± standard deviation: Bleeding / gastric mucosa damage index ± standard deviation: Edema / gastric mucosa damage index ± standard deviation: Erosion / gastric mucosa damage index ± standard deviation: Flare / gastric mucosa damage index ± standard deviation: Hyperemia: points 0 to 3
Description: A rat model test was performed using 100% ethanol as stomach damage inducing factor to evaluate the protective effect of momordica saponin I for gastric mucosa. The momordica saponin I isolated in Preparative Example 5 was dissolved in 0.5% aqueous carboxymethyl cellulose solution to 2 mg/mL and was used as a test drug. Mucosta (rebamipide, Korea Otsuka Pharmaceuticals) dissolved in 0.5% aqueous carboxymethyl cellulose solution to 10 mg/mL was used as control drug.
(§2) Seven-week-old specific pathogen free (SPF) male Sprague-Dawley rats were purchased from Charles River. After 1 week of adaptation, healthy rats with a weight of 220-225 g were selected for the test. Five rats per each group were fasted for 18 hours with drinking water freely available. Momordica saponin I were administered at a dosage of 20 mg/kg and the control drug Mucosta were administered at a dosage of 100 mg/kg. After 30 minutes, 1.5 mL of 100% ethanol was orally administered. 3 hours later, the rats were anesthetized with ether and the stomach was taken out in order to evaluate the drug's effect of preventing the stomach damage. […] The damage of the stomach was classified into flare, congestion, hemorrhage, inflammation and edema. The severity of the damage was evaluated with points ranging from 0 to 3 (the higher the point, the severer the damage.).

[4] = tested on: stomach damage induced by diclofenac; assay: Protective effect of momordica saponin I against stomach damage induced by diclofenac (Example 5); format: in vivo, Sprague-Dawley rats; conditions: rat, diclofenac 40 mg/kg oral and at the same time momordica saponin I 20 mg/kg or Mucosta 100 mg/kg oral; observed 4 hours later; points 0 to 3
[5] = tested on: stomach damage induced by diclofenac; assay: Protective effect against stomach damage induced by diclofenac, simultaneous abdominal administration (Example 4); format: in vivo, Sprague-Dawley rats; conditions: rat, diclofenac 40 mg/kg oral and at the same time drugs 100 mg/kg abdominally, observed 6 hours later
Description: Differently from Example 3, diclofenac and the test drug were administered simultaneously and the damage of gastric mucosa was observed 6 hours later. In order to prevent the direct interaction between diclofenac and the test drug, the test drug was administered abdominally. Similar to that in Example 3, diclofenac and the test drug were dissolved in 0.5% aqueous carboxymethyl cellulose solution to 10 mg/mL.
as §1, with “or the Momordicae semen extract,” for “or momordica saponin I, was orally administered at a dosage of 20 mg/kg”, “control drugs Stillen and” for “control drug”, “Mucosta were abdominally” for “Mucosta was orally”, “mg/kg. 6” for “mg/kg. 4”, “to 3.” for “to 3 (The higher the point, the severer the damage).”

[6] = tested on: stomach damage induced by diclofenac; assay: Healing effect on stomach damage induced by diclofenac (Example 3); format: in vivo, Sprague-Dawley rats; conditions: rat, diclofenac 40 mg/kg oral, drugs 100 mg/kg 6 hours after, observed 18 hours later
Description: A rat model test was performed using diclofenac, a representative non-steroidal anti-inflammatory drug (NSAID), as stomach damage inducing factor to evaluate the effect of the Momordicae semen extract of Example 1 for treating gastritis. The Momordicae semen extract was dissolved in 0.5% aqueous carboxymethyl cellulose solution to 10 mg/mL and was used as a test drug. Stillen (artemisia extract, Dong-A Pharmaceutical) and Mucosta (rebamipide, Korea Otsuka Pharmaceuticals) dissolved in 0.5% aqueous carboxymethyl cellulose solution to 10 mg/mL were used as control drugs.
as §1, with “40 mg/kg. After 6 hours of stomach damage inducement,” for “40 mg/kg and, at”, “the Momordicae semen extract” for “the same time, the test drug, or momordica saponin I, was orally administered at a dosage of 20 mg/kg”, “control drugs Stillen and” for “control drug”, “Mucosta were” for “Mucosta was orally”, “mg/kg. 18” for “mg/kg. 4”, “to 3.” for “to 3 (The higher the point, the severer the damage).”

[7] = tested on: damage of gastric mucosa induced by alcohol; assay: Protective effect against stomach damage induced by alcohol (Momordicae semen extract, Example 1); format: in vivo, Sprague-Dawley rats; conditions: rat, drugs 100 mg/kg 1 hour before 1.5 mL 100% ethanol oral, stomach observed 6 hours later
Description: A rat model test was performed using 100% ethanol as stomach damage inducing factor to evaluate the protective effect of the Momordicae semen extract for gastric mucosa. The Momordicae semen extract of Preparative Example 1 was dissolved in 0.5% aqueous carboxymethyl cellulose solution to 10 mg/mL and was used as a test drug. Stillen (artemisia extract, Dong-A Pharmaceutical) and Mucosta (rebamipide, Korea Otsuka Pharmaceuticals) dissolved in 0.5% aqueous carboxymethyl cellulose solution to 10 mg/mL were used as control drugs.
as §2, with “available. The Momordicae semen extract” for “available. Momordica saponin I were administered at a dosage of 20 mg/kg”, “control drugs Stillen and” for “control drug”, “After 1 hour,” for “After 30 minutes,”, “administered. 6” for “administered. 3”, “was categorized” for “was classified”, “to 3.” for “to 3 (the higher the point, the severer the damage.).”

Row | Structure (SMILES) | gastric mucosa damage index ± standard deviation: Total [1] | gastric mucosa damage index ± standard deviation: Bleeding [1] | gastric mucosa damage index ± standard deviation: Edema [1] | gastric mucosa damage index ± standard deviation: Flare [1] | gastric mucosa damage index ± standard deviation: Hyperemia [1] | gastric mucosa damage index ± standard deviation: Total [3] | gastric mucosa damage index ± standard deviation: Bleeding [3] | gastric mucosa damage index ± standard deviation: Edema [3] | gastric mucosa damage index ± standard deviation: Erosion [3] | gastric mucosa damage index ± standard deviation: Flare [3] | gastric mucosa damage index ± standard deviation: Hyperemia [3] | gastric mucosa damage index ± standard deviation: Erosion [4] | also measured
1 | CC1OC(OC2C(O)C(C(=O)O)OC(OC3CCC4(C)C(CCC5(C)C4CC=C4C6CC(C)(C)CCC6(C(=O)OC6OC(C)C(O)C(O)C6OC6OC(C)C(OC7OCC(O)C(O)C7O)C(OC7OC(CO)C(O)C(OC8OCC(O)C(O)C8O)C7O)C6O)CCC45C)C3(C)C=O)C2OC2OC(CO)C(O)C(O)C2O)C(O)C(O)C1O [Momordica saponin I, 3-O-β-D-galactopyranosyl(1->2)-[α-L-rhamnopyranosyl(1->3)]-β-D-glucuronopyranosido-28-O-β-D-xylopyranosyl(1->3)-β-D-glucopyranosyl(1->3)-[β-D-xylopyranosyl(1->4)]-α-L-rhamnopyranosyl(1->2)-β-D-fucopyranosylgypsogenin] | 5.2 ± 1.2 | 0.7 ± 0.2 | 1 ± 0.2 | 1.3 ± 0.2 | 0.9 ± 0.3 | 4.4 ± 1.1 | 0.9 ± 0.2 | 1 ± 0.3 | 0.5 ± 0.1 | 1.1 ± 0.2 | 0.9 ± 0.3 | 1.3 ± 0.3 | clinical manifestation or death (Sprague-Dawley rats; once at a dosage of 400 mg/kg): no noticeable clinical manifestation or death; toxicity in body weight change, hematological and serum biochemical analysis and autopsy (Sprague-Dawley rats; once at a dosage of 400 mg/kg): no toxicity was found; minimum oral administration lethal dose (LD50) (Sprague-Dawley rats; single administration): ≥ 400 mg/kg; Acidity in the stomach of rats (pH ± standard deviation) ([2]; 5 mg/kg oral): 3.3 ± 0.1 pH; Acidity in the stomach of rats (pH ± standard deviation) ([2]; 15 mg/kg oral): 4.3 ± 0.8 pH; Acidity in the stomach of rats (pH ± standard deviation) ([2]; 45 mg/kg oral): 5.2 ± 0.6 pH
2 | O=C(NC(Cc1cc(=O)[nH]c2ccccc12)C(=O)O)c1ccc(Cl)cc1 (stereo not drawn) [Mucosta, rebamipide] | 8.5 ± 1.5 | 1.5 ± 0.3 | 1.2 ± 0.1 | 2.3 ± 0.3 | 1.3 ± 0.4 | 6.1 ± 1.2 | 1.4 ± 0.2 | 1.2 ± 0.3 | 0.9 ± 0.3 | 1.2 ± 0.2 | 1.4 ± 0.2 | 2.2 ± 0.4 | gastric mucosa damage index: Total [5]: 9.8 ± 1.2; gastric mucosa damage index: Bleeding ([5]; points 0 to 3): 1.4 ± 0.5; gastric mucosa damage index: Edema ([5]; points 0 to 3): 1.2 ± 0.2; gastric mucosa damage index: Erosion ([5]; points 0 to 3): 2.4 ± 0.4; gastric mucosa damage index: Flare ([5]; points 0 to 3): 2.6 ± 0.2; gastric mucosa damage index: Hyperemia ([5]; points 0 to 3): 2.2 ± 0.4; gastric mucosa damage index: Total [6]: 7.4 ± 0.7; gastric mucosa damage index: Bleeding ([6]; points 0 to 3): 1.2 ± 0.2; gastric mucosa damage index: Edema ([6]; points 0 to 3): 2.2 ± 0.2; gastric mucosa damage index: Erosion ([6]; points 0 to 3): 2.4 ± 0.2; gastric mucosa damage index: Flare ([6]; points 0 to 3): 0.8 ± 0.4; gastric mucosa damage index: Hyperemia ([6]; points 0 to 3): 0.8 ± 0.4; gastric mucosa damage index: Total [7]: 8.1 ± 0.8; gastric mucosa damage index: Bleeding ([7]; points 0 to 3): 1.5 ± 0.2; gastric mucosa damage index: Edema ([7]; points 0 to 3): 1.3 ± 0.2; gastric mucosa damage index: Erosion ([7]; points 0 to 3): 1.8 ± 0.2; gastric mucosa damage index: Flare ([7]; points 0 to 3): 1.3 ± 0.2; gastric mucosa damage index: Hyperemia ([7]; points 0 to 3): 1.3 ± 0.4
